# Assay results from patent US11059843B2, “Stevioside M crystal form, preparation method therefor and use thereof” (ZHUCHENG HAOTIAN PHARM CO., LTD., priority 2017, dated 2021).
# Key:
# [1] = Dynamic moisture adsorption (DVS) hygroscopicity; assay type: physicochemical; settings: for hygroscopic mass change (0%-40% RH) / hygroscopicity: water absorption at 40% RH / hygroscopic mass change (40%-80% RH) / hygroscopicity: water absorption at 80% RH: DVS, 25° C.
# Protocol: DVS analysis: It was measured using DVS Intrinsic type dynamic moisture adsorption instrument from British SMS instrument company, measuring temperature: 25° C.; relative humidity: 0-95%.
# [2] = Chemical stability by HPLC after storage at 40° C. and RH 75% for half a year; assay type: physicochemical
# Protocol: HPLC analysis: It was determined using a 1260 infinity liquid chromatograph from Agilent Technologies, Inc., USA. Sample solution preparation method: 25-50 mg of stevioside M sample was accurately weighed, and added into a 25 ml volumetric flask, then water-acetonitrile (7:3, v/v) solution was added, dissolved to volume. Preparation method of sodium phosphate buffer (specification: 10 mmol/L, pH: 2.6): dissolving 2.76 g of sodium dihydrogen phosphate into 2 liters of water, adding phosphoric acid, and the pH was adjusted to 2.6. Chromatographic column: Luna 5μ C18(2) 100 A column from Phenomenex. Injection volume: 5 μl. Flow rate: 1.0 mL/min. Column temperature: 40° C. Detector: UV detection at 210 nm. The elution gradient is shown as follows: […]
# [3] = Water solubility / powder dissolution profile; assay type: physicochemical
# Protocol: The crystal form A of stevioside M prepared in the above examples has good reproducibility and is stable in water solubility, and has a maximum solubility of about 3 mg/mL, and the equilibrium solubility is about 2 mg/mL at 24 hours. The powder dissolution profiles of the two batches of crystal form A of stevioside M prepared by the examples are shown in FIG. 11. The water solubility of crystal form A is similar to that of the stevioside D-stevioside M amorphous composition (about 3 mg/mL) disclosed in Patent CN 105722533 A, and both of which can stably increase the water solubility by 2-3 times.
# [4] = Crystal form stability by XRPD after drying at 105° C. for one day; assay type: physicochemical
# Protocol: (§1) X-ray powder diffraction analysis (XRPD), differential scanning calorimetry analysis (DSC), thermogravimetric analysis (TG), dynamic moisture adsorption analysis (DVS) and the like were made for the crystal form A of stevioside M prepared in the above examples. XRPD analysis: It was tested at room temperature using a Bruker D8 advance type diffractometer from Bruker Instruments, Germany, Cu-Kα ray (λ=1.5418 Å) was used, the 2θ angle was scanned from 3 to 40 degrees, and the scanning speed was 0.2 degrees/second.
# The crystal form A of stevioside M prepared in the above examples was subjected to XRPD analysis after drying at 105° C. for one day, and the analysis results are shown in FIG. 7. It can be seen from FIG. 7 that the crystal form is unchanged, and the crystal form has good stability under high temperature conditions. The crystal form B of stevioside M is extremely unstable under high temperature conditions, and which is amorphous after drying for one day at 105° C., and the analysis results are shown in FIG. 8.
# [5] = Physical stability of crystal form on storage at 25° C. and RH 60% for half a year (XRPD); assay type: physicochemical
# Protocol: as §1
# The crystal form A of stevioside M prepared in the above examples was stored at 25° C. and RH 60% for half a year, and the analysis results are shown in FIG. 9.
# [6] = water at room temperature, stevioside M content of 75% to 90%; cited from earlier work
structure (smiles),measurement,setting,value
"C=C1C[C@@]23CCC4[C@](C)(C(=O)OC5OC(CO)C(O)C(OC6OC(CO)C(O)C(O)C6O)C5OC5OC(CO)C(O)C(O)C5O)CCC[C@@]4(C)[C@@H]2CCC1(OC1OC(CO)C(O)C(OC2OC(CO)C(O)C(O)C2O)C1OC1OC(CO)C(O)C(O)C1O)C3 (stereo partly drawn) [amorphism of stevioside M, 13-[(2-O-β-D-pyranoglucosyl-3-O-β-D-pyranoglucosyl-β-D-pyranoglucosyl)oxyl]-ent-kauran-16-en-19-oic acid-[(2-O-β-D-pyranoglucosyl-3-O-β-D-pyranoglucosyl-β-D-pyranoglucosyl) ester], reference compound]",hygroscopic mass change (0%-40% RH),[1],11.0%
same,hygroscopicity: water absorption at 40% RH,[1],"40% RH, 11.0% of"
same,hygroscopic mass change (40%-80% RH),[1]; 40%-80% RH,8.2%
same,hygroscopicity: water absorption at 80% RH,[1],"80% RH, 19.2% of"
"C=C1C[C@@]23CCC4[C@](C)(C(=O)OC5OC(CO)C(O)C(OC6OC(CO)C(O)C(O)C6O)C5OC5OC(CO)C(O)C(O)C5O)CCC[C@@]4(C)[C@@H]2CCC1(OC1OC(CO)C(O)C(OC2OC(CO)C(O)C(O)C2O)C1OC1OC(CO)C(O)C(O)C1O)C3 (stereo partly drawn) [crystal form A of stevioside M, 13-[(2-O-β-D-pyranoglucosyl-3-O-β-D-pyranoglucosyl-β-D-pyranoglucosyl)oxyl]-ent-kauran-16-en-19-oic acid-[(2-O-β-D-pyranoglucosyl-3-O-β-D-pyranoglucosyl-β-D-pyranoglucosyl) ester]]",reduction of content (HPLC) after storage,[2],less than 0.2%
same,equilibrium solubility in water,[3]; at 24 hours,about 2 mg/mL
same,maximum solubility in water,[3]; powder dissolution,about 3 mg/mL
same,crystal form after drying (XRPD),[4],unchanged
same,hygroscopicity compared with the amorphous form and crystal form B,[1]; 25° C. and 40% RH,significantly less hygroscopic
same,hygroscopicity compared with amorphism under normal storage,[1]; 40%-80% RH,less hygroscopic than amorphism
same,hygroscopic mass change (0%-40% RH),[1],9.4%
same,hygroscopicity: water absorption at 40% RH,[1],"40% RH, 9.4% of"
same,hygroscopic mass change (40%-80% RH),[1]; 40%-80% RH,4.6%
same,hygroscopicity: water absorption at 80% RH,[1],"80% RH, 14.0% of"
same,mass percentage of moisture absorption within a relative humidity of 0-40%,"[1]; dynamic moisture adsorption profile FIG. 4, RH 0-40%",0-9.4%
same,mass percentage of moisture absorption within a relative humidity of 40-80%,"[1]; dynamic moisture adsorption profile FIG. 4, RH 40-80%",9.4-14.0%
same,crystal form after storage (XRPD),[5],unchanged
"C=C1C[C@@]23CCC4[C@](C)(C(=O)OC5OC(CO)C(O)C(OC6OC(CO)C(O)C(O)C6O)C5OC5OC(CO)C(O)C(O)C5O)CCC[C@@]4(C)[C@@H]2CCC1(OC1OC(CO)C(O)C(OC2OC(CO)C(O)C(O)C2O)C1OC1OC(CO)C(O)C(O)C1O)C3 (stereo partly drawn) [crystal form B of stevioside M, 13-[(2-O-β-D-pyranoglucosyl-3-O-β-D-pyranoglucosyl-β-D-pyranoglucosyl)oxyl]-ent-kauran-16-en-19-oic acid-[(2-O-β-D-pyranoglucosyl-3-O-β-D-pyranoglucosyl-β-D-pyranoglucosyl) ester]]",crystal form after drying (XRPD),[4],amorphous
same,hygroscopic mass change (0%-40% RH),[1],15.3%
same,hygroscopicity: water absorption at 40% RH,[1],"40% RH, 15.3% of"
same,hygroscopic mass change (40%-80% RH),[1]; 40%-80% RH,2.1%
same,hygroscopicity: water absorption at 80% RH,[1],"80% RH, 17.4% of"
"C=C1C[C@@]23CCC4[C@](C)(C(=O)OC5OC(CO)C(O)C(OC6OC(CO)C(O)C(O)C6O)C5OC5OC(CO)C(O)C(O)C5O)CCC[C@@]4(C)[C@@H]2CCC1(OC1OC(CO)C(O)C(OC2OC(CO)C(O)C(O)C2O)C1OC1OC(CO)C(O)C(O)C1O)C3 (stereo partly drawn) [stevioside M, 13-[(2-O-β-D-pyranoglucosyl-3-O-β-D-pyranoglucosyl-β-D-pyranoglucosyl)oxyl]-ent-kauran-16-en-19-oic acid-[(2-O-β-D-pyranoglucosyl-3-O-β-D-pyranoglucosyl-β-D-pyranoglucosyl) ester]]",solubility in water,[6],0.1% to 0.15
